These results are taken from patent US20110105564A1, “THIENYLPYRIDYLCARBOXAMIDES” (Bayer CropScience AG, priority 2005, published 2011).

This data set is described as follows: logP determination by HPLC on a reverse-phase column (EEC Directive 79/831 Annex V.A8). The format is physicochemical. Conditions: reverse-phase HPLC column (C 18); acidic range pH 2.3; 0.1% aqueous phosphoric acid and acetonitrile, linear gradient 10% to 90% acetonitrile; C 18 column; 43° C. The method, then:
The logP values given in the Tables and Preparation Examples above are determined in accordance with EEC Directive 79/831 Annex V.A8 by HPLC (High Performance Liquid Chromatography) on a reverse-phase column (C 18). Temperature: 43° C. The determination is carried out in the acidic range at pH 2.3 using the mobile phases 0.1% aqueous phosphoric acid and acetonitrile; linear gradient from 10% acetonitrile to 90% acetonitrile. Calibration is carried out using unbranched alkan-2-ones (having 3 to 16 carbon atoms), with known logP values (determination of the logP values by the retention times using linear interpolation between two successive alkanones).

Regarding `O=C(Nc1ccsc1-c1ccc(Br)cn1)c1cccnc1Cl` [Example 1, N-[2-(5-bromopyridin-2-yl)-3-thienyl]-2-chloronicotinamide], the chromatographic logP – broadly, a lipophilicity value derived from retention on a column – was 2.25. For `Nc1ccsc1-c1ccc(Br)cn1` [Example (III-1), 2-(5-bromopyridin-2-yl)thiophene-3-amine] the value was 0.87; for `CC(C)(C)OC(=O)Nc1ccsc1-c1ccc(Br)cn1` [Example (III-a-1), tert-butyl[2-(5-bromopyridin-2-yl)-3-thienyl]carbamate], 3.27; for `CC(C)(C)OC(=O)Nc1ccsc1I` [Example (VI-1), tert-butyl (2-iodo-3-thienyl)carbamate], 2.43.
